Measured values taken from article PMC10363080, “Modulatory Effect of Pyrus pyrifolia Fruit and its Phenolics on Key Enzymes against Metabolic Syndrome: Bioassay-Guided Approach, HPLC Analysis, and In Silico Study” (Plant Foods for Human Nutrition (Dordrecht, Netherlands), 2023).
Read-outs that look alike come from different tables or passages of the source.

How the values were obtained:
[1] = target: T1, porcine pancreatic lipase (Sus scrofa, UniProt P00591); experiment: Pancreatic lipase inhibitory activity; format: biochemical; details: isolated compounds, Table S7; read-out: Inhibition (IC50) Lipase
T1 construct: purchased Abnova
T1 sequence (P00591 1-450): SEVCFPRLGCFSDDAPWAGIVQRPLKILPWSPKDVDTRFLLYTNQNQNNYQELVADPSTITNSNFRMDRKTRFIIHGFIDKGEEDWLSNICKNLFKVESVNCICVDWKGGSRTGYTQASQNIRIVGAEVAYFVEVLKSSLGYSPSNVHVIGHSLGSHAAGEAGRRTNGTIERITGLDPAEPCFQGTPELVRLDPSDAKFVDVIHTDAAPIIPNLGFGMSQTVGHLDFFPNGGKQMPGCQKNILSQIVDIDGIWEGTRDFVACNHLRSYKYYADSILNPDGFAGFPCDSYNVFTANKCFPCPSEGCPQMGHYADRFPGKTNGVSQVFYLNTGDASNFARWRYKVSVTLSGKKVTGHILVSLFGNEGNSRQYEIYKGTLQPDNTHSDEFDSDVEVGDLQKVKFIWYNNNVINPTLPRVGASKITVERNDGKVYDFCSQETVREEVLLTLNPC
Experimental: (§1) Phenolic acids and flavonoids used in HPLC analysis as well as all other reagents for biological investigations were obtained from Sigma Chemical Company […]
(§2) Inhibitory activity against key enzymes related to metabolic syndrome (MS) All assays were performed in 96-well plates. Stock solutions of the extract (100 mg/mL), fractions (100 mg/mL), and isolated compounds (1000 µM) were prepared. Tested samples that exceeded […]
(§3) inhibitory concentration (IC50). The percentage of enzyme inhibition was calculated according to […]
(§4) % Inhibition = (A−B) − (C−D) x 100 […]
Pancreatic lipase inhibitory activity
The pancreatic lipase inhibitory activity was assessed using p-nitrophenyl dodecanoate (p-NPD) as substrate and porcine pancreatic lipase (Abnova, Taipei, Taiwan) which was described […]
previously. […] The tested samples were diluted in DMSO were incubated with 10 g L−1 PL (diluted in 0.05 mol L−1 Tris-HCl buffer pH 8.0, containing […]
in 0.5% TritonX 100) (m v−1) was added to initiate the reaction. The absorbances were measured

Recombinant renin = target: T2, Recombinant renin (Homo sapiens, UniProt P00797); experiment: Renin inhibitory activity (renin-inhibitor screening assay kit); format: biochemical; details: isolated compounds, Table S7; read-out: Inhibition (IC50) Renin (converted)
T2 construct: purchased BPS Bioscince
T2 sequence (P00797 67-406): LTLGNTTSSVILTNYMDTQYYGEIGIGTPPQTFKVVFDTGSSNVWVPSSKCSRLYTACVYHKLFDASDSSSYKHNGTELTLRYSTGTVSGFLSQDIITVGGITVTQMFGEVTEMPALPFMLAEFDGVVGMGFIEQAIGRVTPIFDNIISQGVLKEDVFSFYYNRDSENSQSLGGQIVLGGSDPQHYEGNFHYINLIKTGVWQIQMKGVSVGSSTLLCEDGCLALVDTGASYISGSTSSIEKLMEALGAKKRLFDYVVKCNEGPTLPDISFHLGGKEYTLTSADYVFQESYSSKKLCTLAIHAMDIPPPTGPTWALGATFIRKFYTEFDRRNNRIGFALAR
Experimental: all of analytical grade. […]
as §1, §2, §3, §4
Renin inhibitory activity
The renin inhibitory activity was examined according to a previously described method using renin-inhibitor screening assay kit (BPS Bioscince, San Diego, CA, USA) and quinapril as a reference drug. Recombinant renin enzyme (50 μL) was dissolved in 50-mM Tris-HCl buffer (pH 8.0) and 100-mM NaCl (assay buffer) and stored at –80°C for further analysis. Twenty μL of renin substrate (A500 μM in DMSO), 150 μL of assay buffer, and 10 μL of each sample were used to prepare test solutions (10mg/ml in methanol). The blank samples were made using 10 μL of the sample, 20 μL of the substrate, and 160 μL of assay buffer. The positive control samples were created using 10 μL of methanol, 20 μL of substrate, and 150 μL of assay buffer. The positive control and tested samples were combined with 10 μL of the renin solution for the assay in order to catalyze the reaction. After that, the reaction mixture was incubated for 45 minutes at 37 °C.
The fluorescence generated at the 340 nm excitation and 490 nm emission wavelengths was measured using a microplate reader.
Xanthine oxidase (XO) inhibitory activity
Xanthine oxidase (XO) inhibitory potential was carried out according to a previous designed procedure using xanthine oxidase (XO, EC 1.17.3.2; Biovision, USA). Allopurinol was applied as a reference drug. Immediately prior to use, a mixture was made up of 50 μL of sample solution, 35 μL of phosphate buffer (70 mM, pH = 7.5), and 30 μL of new enzyme solution (0.01 units/mL in the same buffer). The reaction was started by adding 60 μL of the substrate solution (150 μM xanthine in the same buffer) following a pre-incubation at 25 °C for 15 minutes. After that, the mixture was incubated at 25 °C for 30 min. After adding 25 μL of 1 M HCl to terminate the reaction, the absorbance was measured at 290 nm with a microplate reader as previously

[2] = Oxygen radical absorbance capacity (ORAC) assay; details: for ORAC antioxidant activity: Trolox equivalent per gram of sample, mean ± SD, n=3; for ORAC AA (%) antioxidant activity percentage: compared to ascorbic acid (=100)
Experimental: all of analytical grade. An electrothermal 9100 (UK) was used for the determination of melting points (uncorrected). A Jenway model 6800 spectrophotometer was utilized for recording UV spectra. A Tecan, microplate reader, ((Infinite F50, Switzerland)) was used to measure the absorbances. A Bruker NMR system was used for 1H-NMR (400 MHz) and 13C-NMR (100 MHz).
The NMR spectra were determined in CD3OH and DMSO-d6. Chemical shifts are given in δ (ppm) relative to the internal standard TMS. Phenolic acids and flavonoids used in HPLC analysis as well as all other reagents for biological investigations were obtained from Sigma Chemical Company […]
Determination of the antioxidant activity
2,2`-Azino-bis(3-ethylbenzothiazoline-6-sulfonic acid) (ABTS), ferric reducing antioxidant power (FRAP), and oxygen radical absorbance capacity (ORAC) assays were performed according to the previously published procedures. Ascorbic acid was used as a reference antioxidant […]
drug. […]

α-glucosidase = target: T3, α-glucosidase (Saccharomyces cerevisiae, UniProt P53341); experiment: biochemical; details: isolated compounds, Table S7
T3 construct: purchased Sigma
Experimental: as §1, §2, §3
% Inhibition = (A−B) − (C−D) x 100
A is the activity of the enzyme without tested samples, B is the control of A with neither tested samples nor enzyme, C, and D denote the activity of the test solutions with and without the tested […]
α-Glucosidase inhibitory activity
α-Glucosidase inhibition assays were performed according to a previously described method.
The tested samples were mixed with glutathione, α-glucosidase solution (Saccharomyces cerevisiae, EC 3.2.1.20, Sigma) in phosphate buffer , and the chromogenic substrate p-nitrophenyl-D-glucopyranoside (pNPG). Tested samples (50 μL) were incubated with α-glucosidase (100 μL.
0.6 U mL−1) in the presence of phosphate buffer (0.1 M, pH 6.9) for 10 min at 37 °C. Fifty μL of […] pNPG in phosphate buffer (pH 6.9) was added, and the mixture was incubated again for 12 min at 37 °C. Enzyme activity was evaluated by measuring ρ-nitrophenol release from the ρNPG […]
Absorbance at 405 nm was measured. […]

[3] = Inhibition (IC50) α-Glucosidase

T3 sequence (P53341 whole entry): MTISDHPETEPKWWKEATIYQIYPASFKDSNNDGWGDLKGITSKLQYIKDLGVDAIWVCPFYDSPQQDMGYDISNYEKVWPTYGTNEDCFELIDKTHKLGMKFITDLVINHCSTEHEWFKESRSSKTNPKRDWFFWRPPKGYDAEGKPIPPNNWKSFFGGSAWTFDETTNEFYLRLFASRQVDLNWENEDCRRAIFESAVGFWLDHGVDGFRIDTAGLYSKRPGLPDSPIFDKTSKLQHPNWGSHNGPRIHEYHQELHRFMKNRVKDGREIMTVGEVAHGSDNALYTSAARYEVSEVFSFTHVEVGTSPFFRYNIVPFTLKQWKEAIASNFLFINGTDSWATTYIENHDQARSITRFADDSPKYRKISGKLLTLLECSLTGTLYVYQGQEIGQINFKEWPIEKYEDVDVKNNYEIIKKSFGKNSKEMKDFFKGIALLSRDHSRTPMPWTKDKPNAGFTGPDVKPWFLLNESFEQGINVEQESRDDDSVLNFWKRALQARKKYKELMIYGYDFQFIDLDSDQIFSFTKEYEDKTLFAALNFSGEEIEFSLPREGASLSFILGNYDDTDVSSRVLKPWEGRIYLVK

Row | SMILES | IC50 [1] | IC50 (Recombinant renin) | ORAC antioxidant activity [2] | ORAC AA (%) antioxidant activity percentage [2] | IC50 (α-glucosidase; [3]) | IC50 (α-glucosidase; read-out: Inhibition (IC50) α-Glucosidase) | ORAC antioxidant activity ([2]; listed as Cinnamic acid (P6))
1 | C[C@@H]1O[C@@H](OC[C@H]2O[C@@H](Oc3c(-c4ccc(O)c(O)c4)oc4cc(O)cc(O)c4c3=O)[C@H](O)[C@@H](O)[C@@H]2O)[C@H](O)[C@H](O)[C@H]1O [P1, rutin] | 980 ± 670 nM | 40800 ± 1300 nM | 266.30±0.75 μM TE/g | 68.25% |  |  | 
2 | O=c1c(O[C@@H]2O[C@H](CO)[C@@H](O)[C@H](O)[C@H]2O)c(-c2ccc(O)c(O)c2)oc2cc(O)cc(O)c12 [P2, isoquercitrin] | 570 ± 30 nM | 24800 ± 1300 nM | 346.28±0.29 μM TE/g | 88.74% | 1120 ± 380 nM |  | 
3 | COc1cc(-c2oc3cc(O)cc(O)c3c(=O)c2O[C@@H]2O[C@H](CO)[C@@H](O)[C@H](O)[C@H]2O)ccc1O [P3, isorhamnetin-3-O-β-D-glucopyranoside] | 780 ± 750 nM | 34800 ± 790 nM | 320.78±0.55 μM TE/g | 82.21% |  | 1370 ± 860 nM | 
4 | O=C(/C=C/c1ccc(O)c(O)c1)O[C@@H]1C[C@](O)(C(=O)O)C[C@@H](O)[C@H]1O [P4, chlorogenic acid] | 1310 ± 290 nM | 47800 ± 250 nM |  |  |  |  | 
5 | O=C(O)/C=C/c1ccccc1 [P6, cinnamic acid] | 350 ± 520 nM | 20700 ± 800 nM | 362.55±1.20 μM TE/g | 92.91% | 750 nM |  | 362.55 ± 1.20 μM TE/g
